From patent publication US20240307363A1, “METHODS FOR TREATING A PULMONARY DISEASE WITH AN ALK-5 (TGF BETA R1) INHIBITOR” (Thirona Bio, Inc., priority 2021, published 2024)
Where two headings read alike, the source gives them in different places.

Tests used:
[1] = cynomolgus monkey, in vivo; cited from earlier work
[2] = cited from earlier work
[3] = test system: bleomycin-induced lung fibrosis; test: Efficacy study in bleomycin lung fibrosis model; format: in vivo; conditions: mice
Procedure: Compound 3 may be used to prevent and reverse lung fibrosis and improve lung function and exercise capacity. Male C57BL6/J mice (7-9 weeks old) from the Jackson Laboratory (Bar Harbor, ME), are used for efficacy studies. […] Bleomycin (1-5 U/kg) in […] is intratracheally sprayed into mice lightly anaesthetized with isoflurane (5% in 100%02). Control animals receives […] of 0.9% saline. […] Animals are treated until the end of the study (day 21 post-bleomycin administration). Lung Function and Exercise Capacity: Invasive lung function measurements are taken at specified time points following bleomycin. Mice are anesthetized with 2.5 mg sodium pentobarbital (Abbott Labs, IL), and the trachea cannulated. Animals are mechanically ventilated using a computer-controlled piston ventilator (flexiVent, SCIREQ Inc., Montreal, Canada: tidal volume=10 ml/kg, respiratory rate of 150 breaths/min, 3 cmH2O positive end-expiratory pressure). To test exercise capacity animals are placed on a treadmill at a 5% incline at a speed to 10 m/minute and the speed increased 1 m/minute every 4 minutes of the test until exhausted. Baseline exercise capacity for each mouse is assessed 2 days prior to either saline or bleomycin administration and then once weekly after administration at days 6, 12, and 19 post-instillation. Bronchoalveolar Lavage Cell Assessment: Immediately following lung function measurements, mice are exsanguinated, bronchoalveolar lavage fluid (BALF) is collected, and total and differential cell counts are performed. […] Samples are mixed and centrifuged before injection for LC/MS/MS analysis. LC/MS/MS analysis is conducted by gradient HPLC with selective reaction monitoring (SRM). The calibration range was 40-2,000 ng/ml. The LC/MS/MS system used for the analysis consisted of an AB-Sciex API4000 with an electrospray source connected to an Agilent 1200 pump, a Waters 2777 autosampler, and an Agilent 1100 series column oven. Chromatographic analysis is conducted by HILIC HPLC with an Ascentis Express HILIC ([…], 2.7 um) column. The SRM transition is m/z 132 to m/z 41. Histology: After performing lung function measurements, whole lungs (that are not subject to bronchoalveolar lavage) are inflated under 25 cm H2O pressure with 10% neutral buffered formalin through the tracheal cannula and immersed in formalin for at least 24 h. After being processed into paraffin blocks, the lungs are sectioned ([…]) and stained with either hematoxylin and cosin (H&E) or immunolabeled with an anti-collagen I antibody (rabbit polyclonal, Genetex Inc., Irvine, CA), to assess fibrotic changes in the lungs. To determine the fibrosis histopathology score for the lung of each mouse, the entire left and right longitudinal lung sections (at the level of tracheal bifurcation) are scored separately at 100× magnification and the scores were combined (total score range 0-8). Grading criteria are as follows: Grade 0=no apparent fibrosis; Grade 1=minimal fibrosis with rare foci of mostly interstitial alveolar septal fibrosis affecting less than 5% of the entire lung section; Grade 2=mild fibrosis characterized by multiple foci with thickening of alveolar septa by fibrosis and progressing to regions with fibrous deposition within the alveolar spaces with some damage to the alveoli, affecting 5-25% of the entire lung section; Grade 3=moderate fibrosis with multiple or single coalescing large areas of fibrosis effacing the alveoli with definitive damage to pulmonary architecture, affecting 25-50% of the entire lung section; Grade 4=marked fibrosis with severe distortion of pulmonary parenchyma by large contiguous fibrous areas, affecting 50-75% of the entire lung section. For collagen I IHC quantification, glass slides are scanned at 20× using a Zeiss Mirax scanner (Carl Zeiss Microimaging. Thornwood, NY), and digital slides generated were analyzed using Definiens Tissue Studio software (Definiens, Munich, Germany). […]

[4] = test system: luc-CT26 tumor outgrowth in the lungs; test: Efficacy study in a syngeneic lung cancer model (luc-CT26 cells i.v., lung bioluminescence); format: in vivo; conditions: BALB/c mice
Procedure: Compound 3 may be used to suppress tumor growth in the lungs of a syngeneic cancer model when administered alone or in combination with an immunotherapeutic agent. Six- to eight-week old BALB/c mice are used for in vivo efficacy studies in accordance with IACUC guidelines. Firefly luciferase-expressing CT-26 mouse colon carcinoma cells (luc-CT26, CSC-RR0237, Creative Biogene, Shirley, NY, USA) are grown at 37° C. in a 5% CO2 humidified atmosphere in Dulbecco's Modified Eagle's Medium (D6429, Dominique Dutscher, Brumath, France) supplemented with 10% foetal bovine serum (500105NIDD, Dominique Dutscher), 0.2% glucose (19002-013, Gibco, Thermo Fisher Scientific, Hampton, NH, USA), 2 mM L-[…], Dominique Dutscher), 100 U/ml penicillin and 100 μg/ml streptomycin (15140155, Gibco, Thermo Fisher Scientific). Cell suspensions are prepared by enzymatic treatment with trypsin-EDTA (11560626, Thermo Fisher Scientific). Luc-CT26 cells (2×10^5 cells/mouse) are injected intravenously into BALB/c mice to generate the cancer model in which tumor outgrowth in the lungs is observed. Following injection of CT26 cells and starting on day 6, the mice are monitored 3 times a week (i.e., day 6, day 8, day 11, day 13, etc.) using an IVIS spectrum imaging system (Caliper, PerkinElmer) after ip injection of D-luciferin. […] Body weight is measured twice weekly.

[5] = Intrinsic clearance in human liver microsomes; format: in vitro ADME; conditions: pH 7.4, 0.1 μM test compound, 0.1 mg/mL protein, 1 mM NADPH
Procedure: Assay methods that evaluate the intrinsic clearance (CLINT) in human liver microsomes (HLMs) have been described in the art (Drug Metab. Dispos., (2005), 33(9), 1304-1311 BMC Pulmonary Medicine (2018), 18(63), 1-13). Representative compounds are tested as follows for their intrinsic clearance (CLINT) in human liver microsomes as follows.
A […] microsomal incubation cofactor solution was prepared with 100 mM potassium phosphate buffered to pH 7.4 (BD Biosciences, Woburn, Mass.) supplemented with 2 mM NADPH (Sigma-Aldrich, St. Louis, Mo.). 10 mM DMSO stocks of test compound are diluted and spiked into the cofactor solution to yield a 0.2 μM concentration (0.02% v/v DMSO). Aliquots of frozen human liver microsomes (Bioreclamation IVT, Baltimore Md.) are thawed and diluted into 100 mM potassium phosphate buffer to yield microsomal protein concentrations of 0.2 mg/mL. Cofactor/drug and microsomal solutions are pre-warmed separately for 4 minutes in a water bath held at 37° C. Incubations (n=1) are started by the combination of equal volumes of cofactor/drug solution with microsomal solution. The final concentration of test compound is 0.1 μM with a final […] protein concentration of 0.1 mg/mL and final NADPH concentration of 1 mM. […] Samples are then injected onto an AB Sciex API 4000 triple quadrupole mass spectrometer for quantitation by LC-MS/MS. […]

[6] = test system: bleomycin model; conditions: cited from earlier work
[7] = test system: bleomycin-induced pulmonary fibrosis; conditions: bleomycin-challenged rats, cited from earlier work
[8] = test system: heart valves; conditions: preclinical animal model; all heart valves at all doses tested; cited from earlier work
[9] = rats; cited from earlier work
[10] = molecular target: ALK5 (Homo sapiens (Human), UniProt P36897); test: In vitro screen for ALK5 kinase inhibition (ALK5 phosphorylation of α-Casein, filter-plate radiometric); format: biochemical; conditions: ALK5 protein 2 nM final, α-Casein substrate; mean of two or more IC50 values
Procedure: Representative compounds are tested as follows for inhibition of ALK5 autophosphorylation activity and of the ALK5 phosphorylation of α-Casein.
Representative compounds are screened using the assay procedure for ALK5 kinase activity as described below.
In a 96 well filter-bottom plate (Millipore, #MSDV N6B 50), 58 μL Assay Buffer is added to reach well. Add 10 μL of Cold ATP mix in Assay Buffer, then 10 μL of a 1:10 dilution of α-Casein stock. Then add 2 μL of compound being tested (DMSO) at a 50× final concentration. Hot ATP mix (10 μL) is added, and the reaction is started with the addition of 10 μL of a 1:350 dilution of the ALK5 protein (2 nM final) in Assay Buffer with 0.05% BSA (Bovine Serum Albumin). […] The reaction is then stopped with the addition of 100 μL of ice-cold 20% TCA (trichloroacetic acid). The assay is then incubated for at least 1 hour at 4° C., and then the contents of each well are filtered by suction through the filter. The wells are washed three times with 200 μL ice-cold 10% TCA. The plate bottom is blotted before and after removing plastic sub-base, and dried overnight at room temperature. Add 30 μL of scintillation fluid, and count 1 minute per well on a Wallac Tri-Lux scintillation counter.

[11] = dogs, chronic (>3 months) administration; cited from earlier work
[12] = rats, chronic (>3 months) administration; cited from earlier work

Chain of ALK5 (P36897 34-503, species assumed): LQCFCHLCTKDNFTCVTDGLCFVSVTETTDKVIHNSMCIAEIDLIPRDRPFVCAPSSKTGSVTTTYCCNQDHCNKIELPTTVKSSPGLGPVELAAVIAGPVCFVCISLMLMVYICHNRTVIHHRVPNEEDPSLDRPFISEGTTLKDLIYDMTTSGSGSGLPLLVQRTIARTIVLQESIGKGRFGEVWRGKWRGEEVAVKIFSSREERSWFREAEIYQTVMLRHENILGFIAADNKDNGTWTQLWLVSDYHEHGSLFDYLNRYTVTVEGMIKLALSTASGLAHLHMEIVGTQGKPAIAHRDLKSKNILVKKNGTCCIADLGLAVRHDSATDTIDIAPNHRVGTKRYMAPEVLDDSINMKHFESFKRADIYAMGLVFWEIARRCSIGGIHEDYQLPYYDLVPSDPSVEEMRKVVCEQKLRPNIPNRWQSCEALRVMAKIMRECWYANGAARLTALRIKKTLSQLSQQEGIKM

For “Fresolimumab: a “pan” TGF-β antibody capable of neutralizing all human isoforms of TGF-β”, which “epithelial hyperplasia of the gingiva, bladder and nasal turbinate epithelium” value [1] is on record?
Its value is “induce an epithelial hyperplasia”.

And the adverse events ([2]; human, in vivo)?
The adverse events was “bleeding and anemia issues”.

And the clinical anti-fibrotic efficacy ([2]; scleroderma patients)?
Its clinical anti-fibrotic efficacy is “clear clinical anti-fibrotic efficacy”.

With Cc1cccc(-n2ncc(C)c2-c2cc3cnccc3s2)n1 [Compound 3, 2-[4-methyl-1-(6-methylpyridin-2-yl)-1H-pyrazol-5-yl]thieno[3,2-c]pyridine] as the compound, how does the HP content ([3]; 4-hydroxyproline, intranasal) read?
The HP content was “significant reduced”.

What about the bleomycin-induced lung fibrosis ([3]; dosed intranasally, prophylactic or therapeutic, until day 21) of the same compound?
The bleomycin-induced lung fibrosis was “prevents and/or reverses”.

And the “collagen 1 assessed by IHC” value ([3]; intranasal)?
The value was “reduced”.

And the “fibrosis histopathology scores in the lung” value ([3]; intranasal)?
Its value is “improvements”.

And the lung function ([3]; intranasal)?
The lung function was “significantly improved”.

What about the exercise capacity ([3]; intranasal, treadmill) of the same compound?
Its exercise capacity is “increased”.

And the “bioluminescence intensity (BLI) in the lungs” value ([4]; Compound 3 alone, intranasal)?
Its value is “Statistically significant reduction”.

What about the “efficacy as measured by reduction in BLI” value ([4]; combination with an immunotherapeutic agent) of the same compound?
The value was “increased efficacy”.

And the CLint scaled at 0.1 μM [5]?
The CLint scaled at 0.1 μM was 199 mL/min/kg.

With Cc1cccc(-c2[nH]ncc2-c2ccc(F)c(-c3cnn(CCO)c3)c2)n1 [Compound R-268712] as the compound, how does the antifibrotic efficacy [6] read?
Its antifibrotic efficacy is “strong antifibrotic efficacy”.

With Cc1cccc(-c2[nH]c(C(C)(C)C)nc2-c2ccc3nccnc3c2)n1 [SB-525334] as the compound, how does the “parameters of lung function” value ([7]; after onset of fibrosis, vs vehicle-treated controls) read?
Its value is “significant dose-dependent improvements”.

What about the pulmonary pathology [7] of the same compound?
Its pulmonary pathology is “significant reduction”.

With Cc1ccc(Oc2ccnc(Nc3ccc(S(N)(=O)=O)cc3)c2)c(C)n1 [Compound 48] as the compound, how does the heart valve lesions [8] read?
Its heart valve lesions is “induced heart valve lesions”.

With O=C(NC1CCOCC1)c1ccc(-c2cc(-c3c[nH]nc3-c3ccccn3)ccn2)cc1 [Compound 46] as the compound, how does the physeal dysplasia [9] read?
The physeal dysplasia was “induced physeal dysplasia”.

For CCc1cnn(-c2cccc(C)n2)c1-c1cc2cnccc2s1 [Compound 7], which IC50 [10] is on record?
Its IC50 is 4.33 nM.

For Cc1cccc(-c2nn3c(c2-c2ccnc4ccc(C(N)=O)cc24)CCC3)n1 [Compound 41, galunisertib], which organ toxicities [11] is on record?
Its organ toxicities is “caused multiple organ toxicities”.

And the organ toxicities [12]?
Its organ toxicities is “caused multiple organ toxicities”.

With c1ccc(-c2nc3c(c(-n4ccc5cnccc54)n2)CCC3)nc1 [Compound 47] as the compound, how does the heart valve lesions [8] read?
Its heart valve lesions is “induced heart valve lesions”.
